Laboratory results published in US20070248570A1, “Pharmaceutical Compositions Containing Platinum Complexes with Secondary Xanthates and Therapeutic Uses Thereof” (priority 2003, published 2007).

Tests used:
SK-MEL-25 = assay: Cytotoxicity on human cancer cells in tissue culture, crystal violet staining; format: cell-based
Method: (§1) The anti-tumoral activity of compounds was determined in tissue culture media of pH of 6.8 and 7.4. Cells were incubated for 2 h with the test compounds, followed by 24-96 h incubation with regular, inhibitor free medium of pH 7.4. The substances were serially diluted in tissue culture medium of the desired pH. After incubation, surviving cells were stained with crystal violet and the optical density was measured in an ELISA reader.

KB = assay: as above; format: cell-based
Method: as §1

Calu-6 = assay: as above; format: cell-based
Method: as §1

SK-OV3 = assay: as above; format: cell-based
Method: as §1

LXF-289 = assay: as above; format: cell-based
Method: as §1

MCF-7 = assay: as above; format: cell-based
Method: as §1

[1] = tested on: six human tumor cell lines; assay: Cytotoxic activity in a panel of six human tumor lines (comparisons and pH quotient); format: cell-based; conditions: mean ± SD over the human tumor cell lines tested
Method: FIG. 2: Mean quotient of IC50 at pH 7.4/IC50 at pH 6.8 Mean values ±SD of IC50 at pH 7.4/IC50 at pH 6.8 for all six human tumor cell lines tested. IC50at both pH conditions were obtained for four cell lines.
Calu-6 (adenocarcinoma, lung), SK-MEL-25 (melanoma), MCF-7 (mamma carcinoma), LXF-289 (adenocarcinoma, lung), SK-OV -3 (adenocarcinoma, ovary), KB (squameous cell carcinoma, head and neck) were obtained from ATCC and were cultivated according to the instructions of the supplier at 37° C., 5% CO2 atmosphere and 100% relative humidity.
as §1, with “reader. The concentration which was needed to reduce the cell number by 50% (IC50) was determined from dose-response curves for each compound.” for “reader.”

tumor cells = conditions: cited from earlier work
[2] = tested on: human tumors xenotransplanted in nude mice; conditions: cited from earlier work
[3] = SK-MEL-25, pH 6.8, 2 h incubation, mean of four assays
[4] = SK-MEL-25, pH 7.4, 2 h incubation, mean of four assays
[5] = KB, pH 6.8, 2 h incubation, mean of four assays
[6] = KB, pH 7.4, 2 h incubation, mean of four assays
[7] = Calu-6, pH 6.8, 2 h incubation, mean of four assays
[8] = Calu-6, pH 7.4, 2 h incubation, mean of four assays
[9] = SK-0V-3, pH 6.8, 2 h incubation, mean of four assays
[10] = SK-0V-3, pH 7.4, 2 h incubation, mean of four assays
[11] = LXF-289, pH 6.8, 2 h incubation, mean of four assays
[12] = LXF-289, pH 7.4, 2 h incubation, mean of four assays
[13] = MCF-7, pH 6.8, 2 h incubation, mean of four assays
[14] = MCF-7, pH 7.4, 2 h incubation, mean of four assays

| Compound | IC50 (SK-MEL-25; [3]) [µM] | IC50 (SK-MEL-25; [4]) [µM] | IC50 (KB; [5]) [µM] | IC50 (KB; [6]) [µM] | IC50 (Calu-6; [7]) [µM] | IC50 (Calu-6; [8]) [µM] | IC50 (SK-OV3; [9]) [µM] | IC50 (SK-OV3; [10]) [µM] | IC50 (LXF-289; [11]) [µM] | IC50 (LXF-289; [12]) [µM] | IC50 (MCF-7; [13]) [µM] | IC50 (MCF-7; [14]) [µM] | further results |
| --- | --- | --- | --- | --- | --- | --- | --- | --- | --- | --- | --- | --- | --- |
| N.N.[Cl][Pt][Cl] [Cisplatin, cis-dichloro-diammine-platinum(II)] | 78 ± 3.3 | 90 ± 25 | 55 ± 2 | 52 ± 3.3 | 16 ± 1 | 25 ± 5.7 | 64 ± 0.7 | 90 ± 2.77 | 113 ± 22.3 | 83 ± 23 | 108 ± 27 | 160 ± 30 | – |
| CC(C)OC(=S)[S][Pt][S]C(=S)OC(C)C [Compound 15, Bis(O-isopropyl-dithiocarbonato)platinum(II)] | 6 ± 0.4 | 12 ± 1.5 | 6 ± 0.4 | 10 ± 0.9 | 6 ± 0.6 | 10 ± 0.6 | 14 ± 2.1 | 33 ± 8 | 10 ± 1.7 | 30 ± 0.4 | 3 ± 0.9 | 7 ± 3 | Mean quotient of IC50 at pH 7.4/IC50 at pH 6.8 [1]: 2.18±0.49 |
| COC(=S)[S][Pt][S]C(=S)OC [r1, Bis(O-methyl-dithiocarbonato)platinum (II)] | – | – | – | – | – | – | – | – | – | – | – | – | IC50 (SK-MEL-25; pH 6.8): 14 ± 5 µM; IC50 (SK-MEL-25; pH 7.4): 80 ± 25.9 µM; IC50 (KB; pH 6.8): 20 ± 1 µM; IC50 (KB; pH 7.4): 49 ± 2 µM; IC50 (Calu-6; pH 6.8): 11 ± 2.9 µM; IC50 (Calu-6; pH 7.4): 21 ± 5.6 µM; IC50 (SK-OV3; pH 6.8): 26 ± 2.4 µM; IC50 (SK-OV3; pH 7.4): 47 ± 2.9 µM; IC50 (LXF-289; pH 6.8): 39 ± 9.5 µM; IC50 (LXF-289; pH 7.4): 102 ± 19.3 µM; IC50 (MCF-7; pH 6.8): 7 ± 1 µM; IC50 (MCF-7; pH 7.4): 19 ± 4.4 µM |
| CCOC(=S)[S][Pt][S]C(=S)OCC [r2, Bis(O-ethyl-dithiocarbonato)platinum(II)] | 21 ± 3 | 56 ± 6.2 | 18 ± 4 | 58 ± 5 | 21 ± 3.9 | 24 ± 0.9 | 86 ± 3.2 | 98 ± 16.5 | 45 ± 8 | 91 ± 24.9 | 12 ± 0.2 | 47 ± 5.3 | cytotoxicity in media of pH 6.8 as compared to pH 7.4 (tumor cells): significantly higher cytotoxicity; toxicity on kidneys, small intestines and white blood cell count ([2]; mouse, in vivo): significantly lower toxicity; anti-tumoral activity on human tumors xenotransplanted in nude mice ([2]; versus cisplatin): comparable to cisplatin |
| Bis(O-cyclobutyl-dithiocarbonato)platinum(II) [Compound 18] | 7 ± 1 | 12 ± 3.7 | 6 ± 0.6 | 20 ± 2.9 | 3 ± 0.4 | 7 ± 1.2 | 17 ± 2.9 | 19 ± 4.1 | 37 ± 1.4 | 44 ± 0.8 | 11 ± 0.8 | 21 ± 1 | – |
| Bis(O-propyl-dithiocarbonato)platinum(II) [r3] | 10 ± 1.5 | 21 ± 1.9 | 12 ± 1 | 38 ± 3 | 7 ± 1.1 | 21 ± 0.9 | 45 ± 27 | 50 ± 1 | 37 ± 9 | 49 ± 5 | 4 ± 1 | 9 ± 3 | – |
